What is called IC50 is the concentration that gives 50% inhibition.

This experiment concerns the target T1, human CCR6 (Homo sapiens, UniProt P51684).
T1 construct: expressed in transfected cells; host or cells: HEK-293
T1 sequence (P51684 1-374): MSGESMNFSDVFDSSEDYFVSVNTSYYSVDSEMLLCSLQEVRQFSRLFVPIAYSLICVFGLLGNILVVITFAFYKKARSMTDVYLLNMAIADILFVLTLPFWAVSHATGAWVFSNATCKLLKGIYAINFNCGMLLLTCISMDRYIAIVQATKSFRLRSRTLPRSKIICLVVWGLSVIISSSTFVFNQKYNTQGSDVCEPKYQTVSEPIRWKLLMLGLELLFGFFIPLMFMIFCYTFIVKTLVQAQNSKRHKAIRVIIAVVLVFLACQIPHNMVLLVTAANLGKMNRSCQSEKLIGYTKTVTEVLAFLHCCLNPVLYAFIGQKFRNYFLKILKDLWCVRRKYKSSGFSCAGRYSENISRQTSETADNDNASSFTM
Briefly: FLIPR assay (inhibition of CCL20-induced calcium signal). It counts as cell-based. As to conditions: HEK-293 cells expressing human CCR6; mean values where determined several times; read-out: FLIPR IC50. The protocol: FLIPR assay: The bioactivity of compounds is tested in a fluorometric imaging plate reader (FLIPR: Molecular Devices) using engineered HEK-293 cells expressing the human CCR6 (GenBank: AY242126). Frozen cells are plated on Poly-L-Lysine precoated 384-well plates 2 days prior to bioassay in DMEM medium supplemented with 10% FCS and 1% Penicillin-Streptomycin. […] This buffer, but lacking the dye, is also used for washing and compound dilution steps (assay buffer). Cells are washed free of excess dye with a wash-station (Biotek), leaving 40 microliter of assay buffer at the end. Cells were incubated for 15 minutes at room temperature in the dark, before adding compounds. Stock solutions of test compounds are made up at a concentration of 10 mM in DMSO, and serially diluted first in DMSO and then transferred in assay buffer to concentrations required for inhibition dose response curves. After a 45-minute incubation period in assay buffer at room temperature, 10 microliters of each compound dilution are transferred from a compound plate to the plate containing the recombinant cells in the FLIPR instrument according to the manufacturer's instructions. After cells and compounds were preincubated for 30 minutes at room temperature in the dark, 10 microliter agonist CCL20 (Peprotech) at a final concentration of 10 nM is added, again using the FLIPR instrument. Changes in fluorescence are monitored before and after addition of the test compounds and agonist. Emission peak values above base level after CCL20 addition are exported after base line subtraction.
The calculated IC50 values may fluctuate depending on the daily assay performance. Fluctuations of this kind are known to those skilled in the art.
For the compound `CC(C)c1ccc([C@](O)(c2cncc(CCc3cnn(C)c3)c2)C2(C)CN(C)C2)cc1` [Example 58], the IC50 amounted to 0.44 µM.
As to `CC(C)c1ccc([C@](O)(c2cncc(CCC(O)c3ccccc3)c2)C2(C)CN(C)C2)cc1` (some centres unmarked) [Example 59], the IC50 amounted to 0.0071 µM.
With `CC(C)c1ccc(C(O)(c2cncc(CCC(C)(O)c3ccccc3)c2)C2(C)CN(C)C2)cc1` (centres unmarked) [Example 60] the figure was 0.00906 µM; with `CC(C)c1ccc([C@](O)(c2cncc(CCC(O)C(C)C)c2)C2(C)CN(C)C2)cc1` (some centres unmarked) [Example 61], 0.0194 µM; with `CC(C)c1ccc([C@](O)(c2cncc(CCC3(O)CCOCC3)c2)C2(C)CN(C)C2)cc1` [Example 62], 0.242 µM.
On to `CC(C)c1ccc([C@](O)(c2cncc(CCC(O)C3CCOCC3)c2)C2(C)CN(C)C2)cc1` (some centres unmarked) [Example 63], for which the IC50 stood at 0.601 µM.
With `Cc1nn(C)cc1C(O)CCc1cncc([C@@](O)(c2ccc(C(C)C)cc2)C2(C)CN(C)C2)c1` (some centres unmarked) [Example 64] the figure was 0.441 µM; with `CC(C)c1ccc([C@](O)(c2cncc(CCC3CCOCC3)c2)C2(C)CN(C)C2)cc1` [Example 65], 0.0447 µM; with `Cc1nc(C(O)CCc2cncc([C@@](O)(c3ccc(C(C)C)cc3)C3(C)CN(C)C3)c2)cs1` (some centres unmarked) [Example 66], 0.223 µM.
Consider `CC(C)c1ccc([C@](O)(c2cncc(CCC(C)(O)c3cccc(F)c3)c2)C2(C)CN(C)C2)cc1` (some centres unmarked) [Example 67], for which the IC50 worked out at 0.0118 µM.
With `COc1ccc(C(C)(O)CCc2cncc([C@@](O)(c3ccc(C(C)C)cc3)C3(C)CN(C)C3)c2)cc1` (some centres unmarked) [Example 68], the IC50 is 0.0179 µM.
In the case of `COc1ccccc1C(C)(O)CCc1cncc([C@@](O)(c2ccc(C(C)C)cc2)C2(C)CN(C)C2)c1` (some centres unmarked) [Example 69], the IC50 turned out to be 0.0161 µM.
With `CC(C)c1ccc([C@](O)(c2cncc(CCC(C)(O)c3ccn(C)n3)c2)C2(C)CN(C)C2)cc1` (some centres unmarked) [Example 70] the figure was 0.434 µM.
With `Cc1nc(C(C)(O)CCc2cncc([C@@](O)(c3ccc(C(C)C)cc3)C3(C)CN(C)C3)c2)cs1` (some centres unmarked) [Example 71] the figure was 0.147 µM; with `COc1cccc(C(C)(O)CCc2cncc([C@@](O)(c3ccc(C(C)C)cc3)C3(C)CN(C)C3)c2)n1` (some centres unmarked) [Example 72], 0.015 µM; with `CC(C)c1ccc([C@](O)(c2cncc(CCC(C)(O)c3ncccn3)c2)C2(C)CN(C)C2)cc1` (some centres unmarked) [Example 73], 0.112 µM.
For `Cc1cc(C(C)(O)CCc2cncc([C@@](O)(c3ccc(C(C)C)cc3)C3(C)CN(C)C3)c2)nn1C` (some centres unmarked) [Example 74], the IC50 amounted to 0.154 µM.
To `Cc1cc(C(C)(O)CCc2cncc(C(O)(c3ccc(C(C)C)cc3)C3(C)CN(C)C3)c2)ncn1` (centres unmarked) [Example 75] belongs 0.184 µM; to `Cc1cc(C(O)CCc2cncc([C@@](O)(c3ccc(C(C)C)cc3)C3(C)CN(C)C3)c2)nn1C` (some centres unmarked) [Example 76], 0.627 µM.
With `CC(C)c1ccc([C@](O)(c2cncc(CCC3(O)CCCc4cccnc43)c2)C2(C)CN(C)C2)cc1` (some centres unmarked) [Example 77] the figure was 0.0521 µM.
Take `CC(C)c1ccc([C@](O)(c2cncc(CCC3(O)CCc4cccnc43)c2)C2(C)CN(C)C2)cc1` (some centres unmarked) [Example 78]: the IC50 turned out to be 0.0806 µM.
With `CCC(O)(CCc1cncc([C@@](O)(c2ccc(C(C)C)cc2)C2(C)CN(C)C2)c1)c1ccccn1` (some centres unmarked) [Example 79] the figure was 0.03 µM; with `CCC(O)(CCc1cncc(C(O)(c2ccc(C(C)C)cc2)C2(C)CN(C)C2)c1)c1cccc(OC)n1` (centres unmarked) [Example 80], 0.0105 µM.
To `CC(C)c1ccc([C@](O)(c2cncc(CCc3cc4ccccc4[nH]3)c2)C2(C)CN(C)C2)cc1` [Example 81] belongs 0.0191 µM.
With `CN1CC(C)([C@](O)(c2ccc(C3CC3)cc2)c2cncc(-c3nc(C4CCOCC4)no3)c2)C1` [Example 82, (R)-(4-Cyclopropyl-phenyl)-(1,3-dimethyl-azetidin-3-yl)-{5-[3-(tetrahydro-pyran-4-yl)-[1,2,4]oxadiazol-5-yl]-pyridin-3-yl}-methanol] the figure was 0.185 µM.
As to `COCC(C)(C)c1noc(-c2cncc([C@@](O)(c3ccc(C4CC4)cc3)C3(C)CN(C)C3)c2)n1` [Example 83], the IC50 turned out to be 0.128 µM.
With `CN1CC(C)([C@](O)(c2ccc(C3CC3)cc2)c2cncc(-c3nc(COC4CCC4)no3)c2)C1` [Example 84] the figure was 0.0528 µM.
To `CCCc1ccc([C@](O)(c2cncc(-c3nc(COC4CCOCC4)no3)c2)C2(C)CN(C)C2)cc1` [Example 85] belongs 0.0899 µM.
To `CCCc1ccc([C@](O)(c2cncc(-c3nc(C4CCOCC4)no3)c2)C2(C)CN(C)C2)cc1` [Example 86] belongs 0.0753 µM; to `CCCc1ccc([C@](O)(c2cncc(-c3nc(COC4CCC4)no3)c2)C2(C)CN(C)C2)cc1` [Example 87], 0.0615 µM; to `CC(C)c1ccc([C@](O)(c2cncc(-c3nc(C4CCOCC4)no3)c2)C2(C)CN(C)C2)cc1` [Example 88], 0.0984 µM.
As for `CC(C)c1ccc([C@](O)(c2cncc(-c3nc(CN4CCOCC4)no3)c2)C2(C)CN(C)C2)cc1` [Example 89], the half-inhibitory concentration (IC50) worked out at 0.231 µM.
On to `CC1CN(Cc2noc(-c3cncc([C@@](O)(c4ccc(C(C)C)cc4)C4(C)CN(C)C4)c3)n2)CC(C)O1` (some centres unmarked) [Example 90], for which the IC50 is 0.163 µM.
To `CC(C)c1ccc([C@](O)(c2cncc(-c3nc(C4(C)CCOCC4)no3)c2)C2(C)CN(C)C2)cc1` [Example 91] belongs 0.0462 µM.
With `CC(C)c1ccc([C@](O)(c2cncc(-c3nc([C@@H]4C[C@H]5CC[C@@H]4O5)no3)c2)C2(C)CN(C)C2)cc1` [Example 92], the IC50 was found to be 0.0815 µM.
Take `CC(C)c1ccc([C@](O)(c2cncc(-c3nc(COC4CCOCC4)no3)c2)C2(C)CN(C)C2)cc1` [Example 93]: the IC50 amounted to 0.0868 µM.
To `CC(C)c1ccc([C@](O)(c2cncc(-c3nc(N4CCOCC4)no3)c2)C2(C)CN(C)C2)cc1` [Example 94, (R)-(1,3-Dimethyl-azetidin-3-yl)-(4-isopropyl-phenyl)-[5-(3-morpholin-4-yl-[1,2,4]oxadiazol-5-yl)-pyridin-3-yl]-methanol] belongs 0.0711 µM; to `COC1(c2noc(-c3cncc([C@@](O)(c4ccc(C5CC5)cc4)C4(C)CN(C)C4)c3)n2)CCOCC1` [Example 95, (R)-(4-Cyclopropyl-phenyl)-(1,3-dimethyl-azetidin-3-yl)-{5-[3-(4-methoxy-tetrahydro-pyran-4-yl)-[1,2,4]oxadiazol-5-yl]-pyridin-3-yl}-methanol], 0.196 µM.
With `CN1CC(C)([C@](O)(c2ccc(C3CC3)cc2)c2cncc(-c3nc(C45CC(CO)(C4)C5)no3)c2)C1` [Example 96] the figure was 0.13 µM.
For `CC(C)c1ccc([C@](O)(c2cncc(-c3nc(C45CC(CO)(C4)C5)no3)c2)C2(C)CN(C)C2)cc1` [Example 97], the IC50 came to 0.0713 µM.
Take `CC(C)c1ccc([C@](O)(c2cncc(-c3nc(C(C)(C)CO)no3)c2)C2(C)CN(C)C2)cc1` [Example 98]: the IC50 worked out at 0.06 µM.
As for `CC(C)c1ccc([C@](O)(c2cncc(-c3nc(C(C)(C)O)no3)c2)C2(C)CN(C)C2)cc1` [Example 99], the IC50 was determined as 0.111 µM.
With `COC(C)(C)c1noc(-c2cncc([C@@](O)(c3ccc(C(C)C)cc3)C3(C)CN(C)C3)c2)n1` [Example 100], the IC50 came out at 0.0699 µM.
Consider `COC1(c2noc(-c3cncc([C@@](O)(c4ccc(C(C)C)cc4)C4(C)CN(C)C4)c3)n2)CCC1` [Example 101], for which the IC50 was 0.0418 µM.

For the origin of these results see US12617773B2, “Azetidin-3-ylmethanol derivatives as CCR6 receptor modulators” (Idorsia Pharmaceuticals Ltd, priority 2020, dated 2026).
